Results published in ChEMBL document CHEMBL5303304, “EUbOPEN Chemogenomics Library - IncuCyte” (2023).

Columns and labels:
Format in all cases: toxicity, cell-based
[1] = test system: HEK-293T; assay: Incucyte cell viability with HEK293T; conditions: human, 10 µM, compound concentration 10 uM
[2] = test system: Fibroblast; assay: Incucyte cell viability with human fibroblast; conditions: 10 µM, compound concentration 10 uM
[3] = test system: U2OS; assay: Incucyte cell viability with U2OS; conditions: human, 10 µM, compound concentration 10 uM
Also: unitless GR value; below 1 slowed growth and below 0 cell loss.

Row | Compound | Growth Rate ([1]; 0 h, replicate number 1) | Growth Rate ([1]; 0 h, replicate number 2) | Growth Rate ([1]; 12 h, replicate number 2) | Growth Rate ([1]; 18 h, replicate number 2) | Growth Rate ([1]; 24 h, replicate number 2) | Growth Rate ([2]; 6 h, replicate number 2) | Growth Rate ([2]; 12 h, replicate number 1) | Growth Rate ([3]; 6 h, replicate number 2) | Growth Rate ([3]; 12 h, replicate number 1) | Growth Rate ([3]; 18 h, replicate number 1) | Growth Rate ([3]; 18 h, replicate number 2) | Growth Rate ([1]; 6 h, replicate number 1) | Growth Rate ([1]; 6 h, replicate number 2) | Growth Rate ([2]; 0 h, replicate number 2) | Growth Rate ([2]; 24 h, replicate number 2) | Growth Rate ([3]; 12 h, replicate number 2) | Growth Rate ([3]; 24 h, replicate number 1) | Growth Rate ([3]; 24 h, replicate number 2) | Growth Rate ([1]; 24 h, replicate number 1) | Growth Rate ([1]; 18 h, replicate number 1) | also measured
1 | Cc1nnc2ccc(-c3cccc(C(F)(F)F)c3)nn12 [CI-218872] | 0.97 | 0.45 | 0.87 | 0.95 | 0.99 | -1 | -1 | 0.83 | 0.88 | 0.84 | 0.97 | – | – | – | – | – | – | – | – | – | Growth Rate ([2]; 6 h, replicate number 1): 0.38; Growth Rate ([2]; 12 h, replicate number 2): 0.98; Growth Rate ([3]; 6 h, replicate number 1): 0.76
2 | CC1(C)C[C@@H]1C(=O)N/C(=C\CCCCSC[C@H](N)C(=O)O)C(=O)O [CILASTATIN] | -0.01 | 0.73 | 0.9 | – | – | 0.61 | – | 0.81 | 0.97 | 0.9 | 0.82 | 0.74 | 0.55 | -0.91 | 0.83 | 0.74 | 0.9 | 0.79 | – | – | Growth Rate ([3]; 0 h, replicate number 2): 0.88
3 | O=C(O)c1ccnc(N2CC(O)(c3ccc(OCc4c(-c5c(Cl)cccc5Cl)noc4C4CC4)cc3Cl)C2)c1 [CILOFEXOR] | 0.8 | 0.73 | 0.68 | 0.85 | 1 | -0.03 | – | – | – | – | – | – | 0.54 | – | 0.8 | 1 | – | – | 0.89 | – | Growth Rate ([2]; 18 h, replicate number 1): 0.87
4 | CC(C)(C[C@H]1CN(S(=O)(=O)c2cccc(C(F)(F)F)c2)c2cc(-c3cc(F)cc(OC(F)F)c3)ccc2O1)C(=O)O [CINTIRORGON] | 1 | -0.41 | 0.88 | 0.9 | – | 0.8 | 0.59 | – | 0.81 | 0.78 | – | 0.88 | 0.81 | 0.71 | 0.69 | – | – | – | – | – | Growth Rate ([2]; 6 h, replicate number 1): -0.68; Growth Rate ([2]; 12 h, replicate number 2): 0.54; Growth Rate ([2]; 18 h, replicate number 1): 0.49; Growth Rate ([2]; 18 h, replicate number 2): 0.81; Growth Rate ([2]; 24 h, replicate number 1): 0.29; Growth Rate ([3]; 0 h, replicate number 1): 0.78
5 | CCC(=O)O[C@]1(C(=O)CCl)[C@@H](C)C[C@H]2[C@@H]3CCC4=CC(=O)C=C[C@]4(C)[C@@]3(F)[C@@H](O)C[C@@]21C [CLOBETASOL PROPIONATE] | – | – | – | – | – | – | -1 | 0.94 | 0.77 | 0.92 | 0.88 | 0.7 | 1 | – | – | 0.76 | 0.83 | – | – | – | Growth Rate ([2]; 6 h, replicate number 1): 0.53; Growth Rate ([3]; 0 h, replicate number 2): -0.24; Growth Rate ([3]; 6 h, replicate number 1): -0.15
6 | Cc1cc(C(C#N)c2ccc(Cl)cc2)c(Cl)cc1NC(=O)c1cc(I)cc(I)c1O (stereo not given) [CLOSANTEL] | 0.61 | 0.76 | 0.84 | 0.87 | 0.91 | – | -1 | 0.91 | – | – | 0.87 | 0.13 | 0.49 | -0.74 | – | 0.94 | 0.98 | 0.99 | 0.89 | 0.5 | Growth Rate ([1]; 12 h, replicate number 1): 0.27; Growth Rate ([3]; 0 h, replicate number 1): 0.36; Growth Rate ([3]; 0 h, replicate number 2): -1
7 | Clc1ccccc1C(c1ccccc1)(c1ccccc1)n1ccnc1 [CLOTRIMAZOLE] | 0.08 | -0.96 | 0.5 | 0.54 | 0.41 | – | – | 0.77 | 0.97 | – | 0.81 | – | 0.62 | 0.29 | – | 0.94 | – | 0.76 | 0.72 | 0.79 | Growth Rate ([2]; 0 h, replicate number 1): 0.95; Growth Rate ([2]; 18 h, replicate number 1): 0.54; Growth Rate ([2]; 18 h, replicate number 2): 1; Growth Rate ([2]; 24 h, replicate number 1): 0.82; Growth Rate ([3]; 0 h, replicate number 2): 0.7
8 | COc1c(OCCCN2CCOCC2)ccc2c1N=C(NC(=O)c1cnc(N)nc1)N1CCN=C21 [COPANLISIB] | – | -1 | -0.17 | -0.05 | -0.04 | -0.38 | 0.1 | – | – | 0.98 | 0.9 | 0.09 | -0.34 | – | 0.24 | – | 0.96 | 0.79 | 0.18 | 0.12 | Growth Rate ([1]; 12 h, replicate number 1): 0.15; Growth Rate ([2]; 6 h, replicate number 1): -0.21; Growth Rate ([2]; 12 h, replicate number 2): -0.18; Growth Rate ([2]; 18 h, replicate number 1): 0.26; Growth Rate ([2]; 18 h, replicate number 2): 0.04; Growth Rate ([2]; 24 h, replicate number 1): 0.41; Growth Rate ([3]; 0 h, replicate number 1): -0.44; Growth Rate ([3]; 6 h, replicate number 1): 0.74
9 | O=c1cccc2n1C[C@@H]1CNC[C@H]2C1 [CYTISINICLINE] | – | – | 0.75 | 0.92 | 0.99 | -0.4 | -0.82 | – | 0.79 | 0.97 | 0.99 | – | 0.9 | – | 0.81 | 0.94 | 0.99 | – | 0.88 | 0.79 | Growth Rate ([1]; 12 h, replicate number 1): 0.46; Growth Rate ([2]; 12 h, replicate number 2): 0.99; Growth Rate ([2]; 18 h, replicate number 2): 0.88; Growth Rate ([2]; 24 h, replicate number 1): 0.51
10 | O=C(O)Cc1ccc(CCNS(=O)(=O)c2ccc(Cl)cc2)cc1 [DALTROBAN] | – | – | 0.95 | – | – | – | – | – | – | – | – | 0.23 | 0.8 | -0.53 | – | – | 0.96 | – | 0.72 | 0.67 | Growth Rate ([1]; 12 h, replicate number 1): 0.38; Growth Rate ([2]; 24 h, replicate number 1): 0.99
11 | CCn1cnc2c(-c3ccc(F)c(-c4ccc(S(=O)(=O)CC)cc4OC)c3)cnnc21 [DARIGABAT] | – | – | -0.47 | -0.28 | -0.18 | -1 | 1 | -0.7 | -0.49 | -0.16 | -0.24 | -0.79 | -0.84 | – | -0.48 | -0.46 | 0.01 | -0.05 | -0.32 | -0.38 | Growth Rate ([1]; 12 h, replicate number 1): -0.63; Growth Rate ([2]; 0 h, replicate number 1): -0.83; Growth Rate ([2]; 12 h, replicate number 2): -0.93; Growth Rate ([2]; 18 h, replicate number 1): -0.97; Growth Rate ([2]; 18 h, replicate number 2): -0.67; Growth Rate ([2]; 24 h, replicate number 1): -0.69; Growth Rate ([3]; 0 h, replicate number 2): -0.95; Growth Rate ([3]; 6 h, replicate number 1): -0.92
12 | Cn1c(C2(NC(=O)c3ccc4c(C5CCCC5)c(-c5ncc(Br)cn5)n(C)c4c3)CCC2)nc2ccc(/C=C/C(=O)[O-])cc21.[Na+] [DELEOBUVIR SODIUM] | 0.69 | 0.32 | – | 0.81 | 0.8 | -0.13 | – | – | – | – | 0.92 | – | – | -0.22 | – | 0.79 | – | 0.93 | 0.94 | 0.92 | –
